Key:
Type in all cases: cell-based
M1 muscarinic receptor = target: T1, M1 muscarinic receptor (Homo sapiens, UniProt P11229); assay: Functional mobilization of intracellular calcium (FLIPR), M1-CHO cells; conditions: for M1 Efficacy / Emax: 100% efficacy = maximum response obtained with the Carbachol control; for EC50: CHO cells expressing M1, calcium mobilization
T1 construct: expressed in transfected cells; host or cells: CHO (M1-CHO)
T1 sequence (P11229 1-460): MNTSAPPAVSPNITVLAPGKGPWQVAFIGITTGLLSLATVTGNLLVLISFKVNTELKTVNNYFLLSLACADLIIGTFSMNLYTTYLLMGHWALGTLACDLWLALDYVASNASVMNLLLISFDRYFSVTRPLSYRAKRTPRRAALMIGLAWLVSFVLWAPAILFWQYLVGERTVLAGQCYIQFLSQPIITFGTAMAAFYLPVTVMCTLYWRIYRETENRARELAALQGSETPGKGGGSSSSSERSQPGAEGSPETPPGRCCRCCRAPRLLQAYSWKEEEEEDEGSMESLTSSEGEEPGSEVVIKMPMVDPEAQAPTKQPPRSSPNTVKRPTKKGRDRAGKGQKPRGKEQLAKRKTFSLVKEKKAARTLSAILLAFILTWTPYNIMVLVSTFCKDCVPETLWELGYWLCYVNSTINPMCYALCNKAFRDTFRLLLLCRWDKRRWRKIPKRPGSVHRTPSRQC
Protocol: (§1) Functional Mobilization of Intracellular Calcium to Determine Muscarinic Receptor Activity:
(§2) CHO cells expressing muscarinic receptors (M1 to M5) are grown as monolayers in tissue culture flasks at 37° C. in a humidified atmosphere containing 5% CO2 and passaged every 3-5 days. The growth media is Dulbecco's modified eagles medium (DMEM, Gibco Cat# 12430-054), containing 25 mM Hepes and supplemented with Fetal Bovine Serum (Hyclone, cat #SH30071.03), 0.1 mM of MEM non-essential amino acids (GIBCO, Cat #11140-050), 1 mM MEM Sodium Pyruvate (GIBCO Cat #11360-070) and 100 units/ml of Penicillin G and 100 μg/ml of Streptomycin (GIBCO Cat #15140-122). The recombinant muscarinic receptor cell lines are grown under antibiotic pressure with media containing 25 μg/ml zeocin and 500 μg/ml G418 (M1-CHO), 4 μg/ml puromycin, 50 μg/ml zeocin and 2.5 μg/ml blasticidin (M2 and M4-CHO) or 50 μg/ml zeocin and 4 μg/ml puromycin (M3 and M5-CHO).
(§3) Cells are harvested at 80-90% confluence using Versene (GIBCO Cat #15040-066), collected by centrifugation and seeded 18-24 hrs prior to running the calcium assay at a density of 5,000-10,000 cells/well in […], clear-bottomed 384-well plates (BD Biocoat, poly-D-lysine, Cat#356663). The day of the experiment, the cells are washed with a plate washer (Bioteck Instruments, ELX 405) using bath1 buffer (140-mM NaCl, 4.5-mM KCl, 2-mM CaCl2, 1-mM MgCl2, 10-mM Hepes-Na, 10-mM Glucose, pH 7.4, with NaOH) containing 1 mM Probenecid. Next, the calcium dye Fluo-3 (25 μl/well of Fluo-3 AM at 4 μM, Molecular Probes F-1241, in Bath 1 buffer containing 1 mM Probenecid) is added to the 25 μl of Bath 1 remaining in each well after the plate wash and the dye is loaded at 37° C. in the tissue culture incubator for 60-90 min. The fluorescent dye is removed using the plate washer with Bath 1 containing 1 mM Probenecid, leaving 25 μl/well of this solution after the wash. Alternatively, cells can be loaded with the calcium indicator from Molecular Devices (Calcium 3 Assay Reagents, Cat #R7181) adding 5 μl of a 5× solution dye in Bath 1 containing 1 mM Probenecid (10 ml per dye flask cat #R7182 to generate a solution 20×) to 20 μl of the same buffer. After loading for 60 min, the experiment can be run without having to remove the dye.
(§4) Compounds are prepared at a 2× fold concentration in a 96-well plate (round bottom, Costar Corning cat #3656), by reconstituting the pre-spotted compounds in bath 1 containing 1 mM probenecid. The final concentration DMSO is 0.5%, and the amount of DMSO is normalized across the assay plate. To determine an agonist action of the compounds on muscarinic receptors, the reconstituted compounds are added (25 μl compound/well) to the cell assay plate (containing 25 μl/well) using the multi-channel robotic system of the FLIPR 3 Instrument (Molecular Devices, Sunnyvale, Calif.). To determine a functional inhibitory action of the compounds on muscarinic receptors, the reconstituted compounds are added (25 μl compound/well) to the assay plate and pre-incubated for 15 min prior to adding 25 μl of Carbachol at 3× the EC80 for each muscarinic subtype. Alternatively, the compounds can be co-applied simultaneously with the agonist. In both assay modes, the fluorescence is recorded for 60 sec (excitation wavelength is […] and emission wavelength 540 nm) using the FLIPR 3 instrument.
(§5) The potency, efficacy and selectivity of the muscarinic compounds were evaluated by screening the compound activity across the whole family (M1 to M5 cells). Compounds were also screened for activity on other proteins such as other GPCRs and ion channels to determine selectivity on M4 receptors.
(§6) Examples of activities and efficacies of the muscarinic compounds of formulae (I, Ia, and Ib) on modulating M1 and M4 receptors are shown below in Table 3. […]

M2 muscarinic receptor = target: T2, M2 muscarinic receptor (Homo sapiens, UniProt P08172); assay: Functional mobilization of intracellular calcium (FLIPR), M2-CHO cells; conditions: for M2 Efficacy / Emax: 100% efficacy = maximum response obtained with the Carbachol control; for EC50: CHO cells expressing M2, calcium mobilization
T2 construct: expressed in transfected cells; host or cells: CHO (M2-CHO)
T2 sequence (P08172 1-466): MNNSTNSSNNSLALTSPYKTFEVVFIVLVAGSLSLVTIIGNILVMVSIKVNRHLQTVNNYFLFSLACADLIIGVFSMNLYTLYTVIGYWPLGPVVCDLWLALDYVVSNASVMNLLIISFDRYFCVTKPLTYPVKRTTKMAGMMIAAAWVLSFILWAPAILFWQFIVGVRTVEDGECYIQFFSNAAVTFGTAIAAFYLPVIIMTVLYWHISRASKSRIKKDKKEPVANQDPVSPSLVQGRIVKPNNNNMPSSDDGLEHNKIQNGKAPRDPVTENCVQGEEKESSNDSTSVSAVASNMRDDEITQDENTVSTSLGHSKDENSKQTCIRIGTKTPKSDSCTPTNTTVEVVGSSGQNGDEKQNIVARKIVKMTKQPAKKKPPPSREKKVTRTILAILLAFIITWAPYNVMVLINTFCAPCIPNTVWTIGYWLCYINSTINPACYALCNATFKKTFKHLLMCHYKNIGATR
Protocol: as §1, §2, §3, §4, §5, §6

M3 muscarinic receptor = target: T3, M3 muscarinic receptor (Homo sapiens, UniProt P20309); assay: Functional mobilization of intracellular calcium (FLIPR), M3-CHO cells; conditions: for M3 Efficacy / Emax: 100% efficacy = maximum response obtained with the Carbachol control; for EC50: CHO cells expressing M3, calcium mobilization
T3 construct: expressed in transfected cells; host or cells: CHO (M3-CHO)
T3 sequence (P20309 whole entry): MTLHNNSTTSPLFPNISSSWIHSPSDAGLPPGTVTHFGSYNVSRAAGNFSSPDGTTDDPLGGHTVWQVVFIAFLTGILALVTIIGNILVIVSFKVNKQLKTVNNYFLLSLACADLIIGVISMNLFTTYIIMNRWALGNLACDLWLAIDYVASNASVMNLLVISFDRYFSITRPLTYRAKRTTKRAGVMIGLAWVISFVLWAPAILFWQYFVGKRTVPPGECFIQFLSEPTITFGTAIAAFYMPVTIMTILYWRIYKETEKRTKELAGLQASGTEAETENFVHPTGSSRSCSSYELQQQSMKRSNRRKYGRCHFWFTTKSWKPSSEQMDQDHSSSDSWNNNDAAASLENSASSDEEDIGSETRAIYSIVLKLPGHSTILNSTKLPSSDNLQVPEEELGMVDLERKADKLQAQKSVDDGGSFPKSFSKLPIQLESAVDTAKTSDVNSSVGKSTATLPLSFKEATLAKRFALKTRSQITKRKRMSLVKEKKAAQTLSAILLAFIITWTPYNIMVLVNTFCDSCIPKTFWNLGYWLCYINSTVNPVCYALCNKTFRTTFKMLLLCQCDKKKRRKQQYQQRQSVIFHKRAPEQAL
Protocol: as §1, §2, §3, §4, §5, §6

M4 muscarinic receptor = target: T4, M4 muscarinic receptor (Homo sapiens, UniProt P08173); assay: Functional mobilization of intracellular calcium (FLIPR), M4-CHO cells; conditions: for M4 Efficacy / Emax: 100% efficacy = maximum response obtained with the Carbachol control; for EC50: CHO cells expressing M4, calcium mobilization
T4 construct: expressed in transfected cells; host or cells: CHO (M4-CHO)
T4 sequence (P08173 1-479): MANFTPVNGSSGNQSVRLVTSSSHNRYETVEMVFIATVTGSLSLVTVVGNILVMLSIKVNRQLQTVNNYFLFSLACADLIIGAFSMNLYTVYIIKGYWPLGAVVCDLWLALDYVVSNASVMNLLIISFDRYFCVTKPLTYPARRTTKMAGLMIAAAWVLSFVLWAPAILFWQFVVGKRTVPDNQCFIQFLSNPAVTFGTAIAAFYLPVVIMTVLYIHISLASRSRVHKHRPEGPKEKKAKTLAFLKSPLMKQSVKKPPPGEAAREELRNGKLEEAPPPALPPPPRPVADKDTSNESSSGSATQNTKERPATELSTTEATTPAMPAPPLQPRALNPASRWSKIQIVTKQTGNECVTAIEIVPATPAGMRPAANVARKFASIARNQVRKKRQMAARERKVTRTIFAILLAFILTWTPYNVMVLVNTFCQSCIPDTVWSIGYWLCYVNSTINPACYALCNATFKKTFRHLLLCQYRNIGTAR
Protocol: as §1, §2, §3, §4, §5, §6

SMILES | M1 Efficacy (M1 muscarinic receptor) | EC50 (M1 muscarinic receptor) | M2 Efficacy (M2 muscarinic receptor) | EC50 (M2 muscarinic receptor) | M3 Efficacy (M3 muscarinic receptor) | EC50 (M3 muscarinic receptor) | M4 Efficacy (M4 muscarinic receptor) | EC50 (M4 muscarinic receptor) | Emax (M1 muscarinic receptor) | Emax (M2 muscarinic receptor) | Emax (M3 muscarinic receptor) | Emax (M4 muscarinic receptor)
CN1C(=O)C[C@@H]2CC3(CCN(C4CC5CCC(C5)C4)CC3)c3ccccc3[C@@H]21 (stereo partly shown) [Compound 3] | ++ (efficacy was calculated to be from 100% to 25%) | < 2000 nM | + (efficacy was calculated to be less than 25%) | < 2000 nM | + (efficacy was calculated to be less than 25%) | > 5000 nM | ++ (efficacy was calculated to be from 100% to 25%) | < 2000 nM | – | – | – | –
c1ccc2c(c1)C1OCCC1CC21CCN(C2CCCCC2)CC1 (stereo not shown) [Compound 26] | – | > 5000 nM | – | > 5000 nM | – | > 5000 nM | – | < 2000 nM | 25 to 100% | < 25% | < 25% | < 25%
O=C1C[C@@H]2[C@H](N1)c1ccccc1C21CCN(C2CCCCC2)CC1 [Compound 31] | – | < 2000 nM | – | 2000 to 5000 nM | – | > 5000 nM | – | < 2000 nM | 25 to 100% | < 25% | < 25% | 25 to 100%
CCOC(=O)N1CCC(N2CCC3(CC2)C[C@H]2CC(=O)N[C@H]2c2ccccc23)CC1 [Compound 9] | – | < 2000 nM | – | < 2000 nM | – | < 2000 nM | – | < 2000 nM | 25 to 100% | 25 to 100% | 25 to 100% | 25 to 100%
O=C1C[C@@H]2CC3(CCN(C4CCCCC4)CC3)c3ccccc3[C@@H]2N1 [Compound 7] | – | < 2000 nM | – | < 2000 nM | – | > 5000 nM | – | < 2000 nM | 25 to 100% | 25 to 100% | < 25% | 25 to 100%
c1ccc2c(c1)C1OCCC1CC21CCN(C2CC3CCC(C3)C2)CC1 (stereo not shown) [Compound 8] | – | > 5000 nM | – | > 5000 nM | – | > 5000 nM | – | < 2000 nM | 25 to 100% | < 25% | < 25% | 25 to 100%
CCOC(=O)N1CCC(N2CCC3(CC2)CC2CCOC2c2ccccc23)CC1 (stereo not shown) [Compound 2] | – | < 2000 nM | – | < 2000 nM | – | > 5000 nM | – | < 2000 nM | 25 to 100% | 25 to 100% | < 25% | 25 to 100%
COCCN1C(=O)C[C@@H]2CC3(CCN(C4CCCCC4)CC3)c3ccccc3[C@@H]21 [Compound 16] | – | > 5000 nM | – | > 5000 nM | – | > 5000 nM | – | < 2000 nM | < 25% | < 25% | < 25% | 25 to 100%
COCCN1C(=O)C[C@@H]2CC3(CCN(CC4CCCCC4)CC3)c3ccccc3[C@@H]21 [Compound 22] | – | 2000 to 5000 nM | – | > 5000 nM | – | > 5000 nM | – | < 2000 nM | 25 to 100% | < 25% | < 25% | 25 to 100%
O=C1C[C@@H]2[C@H](N1)c1ccccc1C21CCN(C[C@H]2C[C@@H]3CC[C@@H]2C3)CC1 [Compound 30] | – | < 2000 nM | – | 2000 to 5000 nM | – | > 5000 nM | – | < 2000 nM | 25 to 100% | 25 to 100% | < 25% | 25 to 100%
CCOC(=O)N1CCC(N2CCC3(CC2)C[C@H]2CC(=O)N(C)[C@H]2c2ccccc23)CC1 [Compound 12] | – | < 2000 nM | – | < 2000 nM | – | > 5000 nM | – | < 2000 nM | 25 to 100% | 25 to 100% | < 25% | 25 to 100%
CN1C(=O)C[C@@H]2CC3(CCN(C4CCCCC4)CC3)c3ccccc3[C@@H]21 [Compound 24] | ++ (efficacy was calculated to be from 100% to 25%) | > 5000 nM | + (efficacy was calculated to be less than 25%) | > 5000 nM | + (efficacy was calculated to be less than 25%) | > 5000 nM | ++ (efficacy was calculated to be from 100% to 25%) | < 2000 nM | – | – | – | –
c1ccc2c(c1)C1OCCC1CC21CCN(C2C[C@H]3CC[C@@H]2C3)CC1 (stereo partly shown) [Compound 6] | – | > 5000 nM | – | > 5000 nM | – | > 5000 nM | – | < 2000 nM | < 25% | < 25% | < 25% | 25 to 100%
O=C1CC2CC3(CCN(C4CC5CCC(C5)C4)CC3)c3ccccc3C2O1 (stereo not shown) [Compound 28] | – | < 2000 nM | – | > 5000 nM | – | > 5000 nM | – | < 2000 nM | 25 to 100% | < 25% | < 25% | 25 to 100%
